Reference: US20230057568A1, “COMPOUNDS FOR TREATING FAMILIAL DYSAUTONOMIA” (PTC THERAPEUTICS, INC., priority 2019, published 2023)

System: Elongator complex protein 1 (ELP1, also referred to as IKBKAP)
Test: IKBKAP-HTRF Assay
Assay type: cell-based, human
Conditions: FD patient-derived fibroblasts GM04589, 48 hours incubation; for EC2x for IKBKAP protein expression (concentration producing two times the amount of IKBKAP protein vs DMSO vehicle control): 7-point concentration curve; for MFI (maximum fold increase in IKBKAP protein abundance relative to the vehicle control): HTRF
Summary of the method: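 FD patient cells in DMEM-10% FBS were treated 48 hours at 37 °C with a 7-point, 3.16-fold compound series in triplicate, then lysed. IKBKAP was quantified by sandwich HTRF with two anti-IKAP antibodies, incubated overnight at 4 °C and read at 665/620 nm. MFI is AF relative to vehicle, and EC2× is the concentration doubling IKBKAP versus DMSO.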

Compound | EC2x for IKBKAP protein expression (concentration producing two times the amount of IKBKAP protein vs DMSO vehicle control) | MFI (maximum fold increase in IKBKAP protein abundance relative to the vehicle control)
Cc1c(C[C@H](C)N)sc2c(NCc3ccco3)nc(C#N)nc12 [Cpd 21, 6-[(2S)-2-aminopropyl]-4-{[(furan-2-yl)methyl]amino}-7-methylthieno[3,2-d]pyrimidine-2-carbonitrile] | **** (between >0.005 μM and ≤0.02 μM) | ***** (>4.9)
CC[C@H](N)Cc1sc2c(NCc3ncco3)nc(Cl)nc2c1C [Cpd 69, 6-[(2S)-2-aminobutyl]-2-chloro-7-methyl-N-[(1,3-oxazol-2-yl)methyl]thieno[3,2-d]pyrimidin-4-amine] | **** (between >0.005 μM and ≤0.02 μM) | ***** (>4.9)
CC[C@H](N)c1sc2c(NCc3ccco3)nc(Cl)nc2c1C [Cpd 48, 6-[(1S)-1-aminopropyl]-2-chloro-N-[(furan-2-yl)methyl]-7-methylthieno[3,2-d]pyrimidin-4-amine] | *** (between >0.02 μM and ≤0.5 μM) | ** (between >1.9 and <2.9)
Cc1c(C2CNC2)sc2c(NCc3ccco3)nc(Cl)nc12 [Cpd 41, 6-(azetidin-3-yl)-2-chloro-N-[(furan-2-yl)methyl]-7-methylthieno[3,2-d]pyrimidin-4-amine] | *** (between >0.02 μM and ≤0.5 μM) | ** (between >1.9 and <2.9)
Cc1c([C@@H](C)N)sc2c(NCc3ccco3)nc(Cl)nc12 [Cpd 94, 6-[(1R)-1-aminoethyl]-2-chloro-N-[(furan-2-yl)methyl]-7-methylthieno[3,2-d]pyrimidin-4-amine] | * (EC2×>1 μM) | * (MFI<1.9)
COC[C@H](N)Cc1sc2c(NCc3ccco3)nc(Cl)nc2c1C [Cpd 76, 6-[(2R)-2-amino-3-methoxypropyl]-2-chloro-N-[(furan-2-yl)methyl]-7-methylthieno[3,2-d]pyrimidin-4-amine] | ***** (<0.005 μM) | ***** (>4.9)
Cc1c(C[C@@H](N)CO)sc2c(NCc3cccs3)nc(Cl)nc12 [Cpd 56, (2R)-2-amino-3-(2-chloro-7-methyl-4-{[(thiophen-2-yl)methyl]amino}thieno[3,2-d]pyrimidin-6-yl)propan-l-ol] | ***** (<0.005 μM) | ***** (>4.9)
Cc1csc2c(NCc3ccco3)nc(Cl)nc12 [Cpd 18, 2-chloro-N-[(furan-2-yl)methyl]-7-methylthieno[3,2-d]pyrimidin-4-amine] | *** (between >0.02 μM and ≤0.5 μM) | ***** (>4.9)
C[C@H](N)Cc1cc2ncnc(NCc3ccco3)c2s1 [Cpd 8, 6-[(2S)-2-aminopropyl]-N-[(furan-2-yl)methyl]thieno[3,2-d]pyrimidin-4-amine] | *** (between >0.02 μM and ≤0.5 μM) | *** (between >2.9 and <3.9)
CC[C@H](N)Cc1sc2c(NCc3ccco3)nc(Cl)nc2c1C [Cpd 13, 6-[(2S)-2-aminobutyl]-2-chloro-N-[(furan-2-yl)methyl]-7-methylthieno[3,2-d]pyrimidin-4-amine] | ***** (<0.005 μM) | ***** (>4.9)
Cc1c(C[C@@H](N)CO)sc2c(NCc3ccco3)nc(Cl)nc12 [Cpd 19, (2R)-2-Amino-3-(2-chloro-4-{[(furan-2-yl)methyl]amino}-7-methylthieno[3,2-d]pyrimidin-6-yl)propan-1-ol] | ***** (<0.005 μM) | ***** (>4.9)
C[C@H](N)Cc1cc2ncnc(NCc3ccncc3)c2s1 [Cpd 11, 6-[(2S)-2-aminopropyl]-N-[(pyridin-4-yl)methyl]thieno[3,2-d]pyrimidin-4-amine] | *** (between >0.02 μM and ≤0.5 μM) | **** (between >3.9 and <4.9)
Cc1c(C2CCNC2)sc2c(NCc3ccco3)nc(Cl)nc12 (centres unmarked) [Cpd 57, 2-chloro-N-[(furan-2-yl)methyl]-7-methyl-6-(pyrrolidin-3-yl)thieno[3,2-d]pyrimidin-4-amine] | *** (between >0.02 μM and ≤0.5 μM) | *** (between >2.9 and <3.9)
Cc1c(C[C@@H](C)CN)sc2c(NCc3ccco3)nc(Cl)nc12 [Cpd 72, 6-[(2R)-3-amino-2-methylpropyl]-2-chloro-N-[(furan-2-yl)methyl]-7-methylthieno[3,2-d]pyrimidin-4-amine] | *** (between >0.02 μM and ≤0.5 μM) | *** (between >2.9 and <3.9)
Clc1nc(NCc2nccs2)c2sccc2n1 [Cpd 96, 2-chloro-N-[(1,3-thiazol-2-yl)methyl]thieno[3,2-d]pyrimidin-4-amine] | * (EC2×>1 μM) | ** (between >1.9 and <2.9)
C[C@H](N)Cc1cc2nc(Cl)nc(NCc3cccs3)c2s1 [Cpd 14, 6-[(2S)-2-aminopropyl]-2-chloro-N-[(thiophen-2-yl)methyl]thieno[3,2-d]pyrimidin-4-amine] | **** (between >0.005 μM and ≤0.02 μM) | ***** (>4.9)
